Results published in patent US11987804B2, “Rapamycin resistant cells” (Seattle Children's Hospital, priority 2018, dated 2024).

Columns and labels:
μDISC GFP edTreg = test: In vivo expansion of μDISC GFP edTreg by rapamycin in humanized mouse model; set-up: species or system NOD-scid-IL2RgNULL (NSG) mice; details: for CD25+ GFP+ edTreg cells / CD25− GFP+ edTreg cells / CD127+ GFP+ edTreg cells / CD127− GFP+ edTreg cells: peripheral blood seven days post-transfer, rapamycin 0.1 mg/kg i.p. every other day, representative mouse
Protocol: This Example describes experiments performed to test the capacity of edTreg cells expressing a μDISC construct to be expanded in vivo by rapamycin treatment. […] There are also conditions under which it is not desirable to expand Tregs, for example, in some cases of infection. Therefore, a useful feature of engineered cells provided herein having Treg features is the ability to exert control on expansion in vivo. Experiments were carried out to determine whether rapamycin could increase the number of μDISC edTregs in vivo using a humanized mouse model, which included human cells transferred into immune-incompetent NOD-scid-IL2RgNULL (NSG) mice. For these experiments, cells were edited using an AAV donor to drive cis-linked expression of the μDISC and endogenous FOXP3 from the MND promoter. This AAV donor template incorporates a GFP fusion protein at the N-terminal of endogenous FOXP3. The GFP-labeled FOXP3 fusion protein was used to facilitate the ability to detect gene-edited cells within the in vivo cell samples. […] The beads were then removed at Day −1. […] In the three-phase expansion protocol used in this experiment, the timing of Expansion Phase 0 flow cytometry was on Day 2. Recovered cells after Expansion Phase 0 were then transferred to the G-rex® flask and expanded in the presence of 10 nM rapamycin to select edited cells (Expansion Phase 1; Days 3-9) and to allow DISC edTreg enrichment, followed by flow cytometry and addition of anti-CD3/CD28 beads (Expansion Phase 2; Days 9-16; in the presence of 10 nM rapamycin). Flow cytometry was performed at Days 2, 9, 12, and 16 to monitor edited GFP+FOXP3+ cell expansion.
NSG mice were pre-treated with rapamycin in order to saturate rapamycin binding proteins and provide rapamycin in serum.
The μDISC GFP edTregs (or mock-edited cells) were then injected i.v. according to the following general procedure. Starting from Day −4, intraperitoneal (i.p.) injection of rapamycin 0.1 mg/kg was carried out every other day until Day 21. At Day 0, irradiation was performed and μDISC edTreg was i.v. injected. Peripheral blood samples were collected to either test for rapamycin levels (Day 2) or for flow cytometry (Days 7, 14, 21, and 28) to track the phenotype and number of transferred human T cells including GFP+ edTreg cells.
To illustrates expansion of μDISC GFP edTreg in rapamycin treated vs. vehicle, flow cytometry results from peripheral blood seven days post-transfer into NSG are shown in Table 11 below (Gate: live, hCD45+, hCD4+), where human T cell markers and GFP+ are shown for a representative mouse from each cohort.

[1] = tested on: primary human CD4+ T cells; test: Three-phase expansion protocol for μDISC edTreg (flow cytometry HA/FOXP3, cell counts); assay type: cell-based; details: for Day-3 flow cytometry Q4 / Day-10 flow cytometry Q3 / Day-10 flow cytometry Q4 / Day-15 flow cytometry Q4: Expansion Phase 0 additive 50 μg/mL IL-2, 10 nM rapamycin or 100 nM AP21967; for Day-3 flow cytometry Q1 / Day-10 flow cytometry Q1 / Day-15 flow cytometry Q1: Q1 = HA- FOXP3+; for Day-10 flow cytometry Q3 / Day-10 flow cytometry Q4 / Day-10 flow cytometry Q1: after Expansion Phase 1; for Day-15 flow cytometry Q4 / Day-15 flow cytometry Q3 / Day-15 flow cytometry Q1: after Expansion Phase 2
Protocol: Recovered cells after Expansion Phase 0 were then transferred to the G-Rex flask and expanded in rapamycin (Expansion Phase 1; Days 3-10) to allow DISC edTreg enrichment, followed by addition of anti-CD3/CD28 beads (Expansion Phase 2; Days 10-15). The same AAV construct as shown in FIG. 13A was used in this experiment.
After Expansion Phase 1 (Day 10), successfully edited cells were assessed by flow cytometry.

CD4+ T cells [2] = test: Regulatory T cell marker phenotype of DISC-expressing edited Treg cells; assay type: cell-based, human; details: IL-2 50 ng/mL, rapamycin 10 nM or AP21967 100 nM
CD4+ T cells [3] = test: Selective expansion of DISC/HA-FOXP3 edited Treg cells (flow cytometry for HA tag and FOXP3); assay type: cell-based, human; details: 50 ng/mL IL-2, 10 nM Rapamycin or 100 nM AP21967
Excerpt: This Example illustrates the use of gene editing technology to knock-in a construct encoding the DISC and a promoter upstream of the endogenous FOXP3 (Forkhead box P3) locus in CD4+ T cells. […] In brief, a CRISPR/CAS9 ribonucleoprotein containing a guide RNA (gRNA) specific for a locus 5′ of exon 1 of FOXP3 was used in combination with an adeno-associated virus 6 (AAV6) donor template for FOXP3 gene editing The gRNA included a spacer having the sequence of SE ID NO:58. An ectopic MND promoter was introduced to drive DISC expression upstream of endogenous FOXP3. Expression of FOXP3 was designed to be in-frame with an N-terminal hemagglutinin (HA) epitope tag and nuclear localization sequence to generate a chimeric protein.

[4] = peripheral blood Day 7 and Day 14, rapamycin treated vs. vehicle
[5] = Expansion Phase 0 additive, 10 nM rapamycin or 100 nM AP21967

## CO[C@H]1C[C@@H]2CC[C@@H](C)[C@@](O)(O2)C(=O)C(=O)N2CCCC[C@H]2C(=O)O[C@H]([C@H](C)C[C@@H]2CC[C@@H](O)[C@H](OC)C2)CC(=O)[C@H](C)/C=C(\C)[C@@H](O)[C@@H](OC)C(=O)[C@H](C)C[C@H](C)/C=C/C=C/C=C/1C [Rapamycin, (3S,6R,7E,9R,10R,12R,14S,15E,17E,19E,21S,23S,26R,27R,34aS)-9,10,12,13,14,21,22,23,24,25,26,27,32,33,34,34a-hexadecahydro-9,27-dihydroxy-3-[(1R)-2-[(1S,3R,4R)-4-hydroxy-3-methoxycyclohexyl]-1-methylethyl]-10,21-dimethoxy-6,8,12,14,20,26-hexamethyl-23,27-epoxy-3H-pyrido[2,1-c][1,4] oxaazacyclohentriacontine-1,5,11,28,29 (4H,6H,31H)-pentone]
μDISC GFP edTreg; No Radiation
  CD25+ GFP+ edTreg cells: 79.9%
  CD25− GFP+ edTreg cells: 8.37%
  CD127+ GFP+ edTreg cells: 0.57
  CD127− GFP+ edTreg cells: 88.2
μDISC GFP edTreg; Radiation (200 Gy), gate live, hCD45+, hCD4+
  CD25+ GFP+ edTreg cells: 82.6%
μDISC GFP edTreg; Radiation (200 Gy)
  CD25− GFP+ edTreg cells: 5.52%
  CD127− GFP+ edTreg cells: 87.6
μDISC GFP edTreg; Radiation
  CD127+ GFP+ edTreg cells: 0.50
μDISC GFP edTreg; [4]
  number of GFP+ cells in serum sample: higher
  percentage of GFP+ cells: higher
μDISC GFP edTreg; tracked weekly for four weeks, rapamycin treated vs. untreated mice
  levels of μDISC GFP edTreg in the peripheral blood (FIG. 17): higher levels of μDISC GFP edTreg at each time point, peaking between two and three weeks after cell transfer
[1]
  Day-3 flow cytometry Q4: 91.70%
  Day-10 flow cytometry Q3: 9.31%
  Day-10 flow cytometry Q4: 20.1%
  Day-15 flow cytometry Q4: 15.7%
[1]; [5]
  Day-3 flow cytometry Q3: 1.48%
  Day-3 flow cytometry Q1: 0.38%
  Day-10 flow cytometry Q1: 0.44%
  Day-15 flow cytometry Q3: 7.56%
  Day-15 flow cytometry Q1: 1.08%
CD4+ T cells [2]
  CD25+ FOXP3+: 28.9%
  CD25+ FOXP3−: 14.5%
  CD 127+ FOXP3+: 1.47%
  CD 127+ FOXP3−: 40.8%
  CTLA4+ FOXP3+: 15.5%
  CTLA4+ FOXP3−: 29.4%
  ICOS+ FOXP3+: 38.2%
  ICOS+ FOXP3−: 2.38%
  LAG3+ FOXP3+: 7.86%
  LAG3+ FOXP3−: 33.3%
CD4+ T cells [3]; 7 day post-treatment
  percentage of double positive cells (expressing HA-FOXP3), DISC/HA-FOXP3: 47.6%
  percentage of double positive cells (expressing HA-FOXP3), Mock: 0.022%
CD4+ T cells [3]; 15 day post-treatment
  percentage of double positive cells (expressing HA-FOXP3), DISC/HA-FOXP3: 85.6%

## CO[C@H]1[C@@H](O)[C@H](C)C[C@H](C)/C=C/C=C/C=C(\C)[C@@H](c2c[nH]c3c(C)cccc23)C[C@@H]2CC[C@@H](C)[C@@](O)(O2)C(=O)C(=O)N2CCCC[C@H]2C(=O)O[C@H]([C@H](C)C[C@@H]2CC[C@@H](O)[C@H](OC)C2)C[C@H](O)[C@H](C)/C=C(\C)[C@H]1O [AP21967, C-16-(S)-7-methylindolerapamycin]
[1]
  Day-3 flow cytometry Q4: 86.00%
  Day-10 flow cytometry Q3: 5.54%
  Day-10 flow cytometry Q4: 13.3%
  Day-15 flow cytometry Q4: 10.7%
[1]; [5]
  Day-3 flow cytometry Q3: 1.74%
  Day-3 flow cytometry Q1: 0.39%
  Day-10 flow cytometry Q1: 0.59%
  Day-15 flow cytometry Q3: 4.93%
  Day-15 flow cytometry Q1: 0.33%
[1]; Q2 = HA+ FOXP3+ successfully edited cells, Expansion Phase 0 additive, 10 nM rapamycin or 100 nM AP21967
  Day-3 flow cytometry Q2: 11.90%
CD4+ T cells [2]
  CD25+ FOXP3+: 22.5%
  CD25+ FOXP3−: 20.4%
  CD 127+ FOXP3+: 1.63%
  CD 127+ FOXP3−: 40.3%
  CTLA4+ FOXP3+: 13.6%
  CTLA4+ FOXP3−: 30.8%
  ICOS+ FOXP3+: 36.8%
  ICOS+ FOXP3−: 2.99%
  LAG3+ FOXP3+: 8.81%
  LAG3+ FOXP3−: 31.5%
CD4+ T cells [3]; 7 day post-treatment
  percentage of double positive cells (expressing HA-FOXP3), DISC/HA-FOXP3: 45.7%
  percentage of double positive cells (expressing HA-FOXP3), Mock: 0.033%
CD4+ T cells [3]; 15 day post-treatment
  percentage of double positive cells (expressing HA-FOXP3), DISC/HA-FOXP3: 82.1%
